Assay results published in publication PMC10525732, “Assessing the Activity under Different Physico-Chemical Conditions, Digestibility, and Innocuity of a GAPDH-Related Fish Antimicrobial Peptide and Analogs Thereof” (Antibiotics, 2023).
≈ marks a conversion by molar mass, not a printed value. Where two headings read alike, the source gives them in different places.

Tested on: E. coli ATCC 11229
Assay: Minimal inhibitory concentration (MIC), broth microdilution
Format: cell-based
Conditions: Escherichia coli
Method: It was cultivated in tryptic soy broth (TSB) (BD, Sparks, NV, USA) at 37 °C and subcultured three times before being used for antimicrobial activity assays.
MICs for Escherichia coli ATCC 11229 were determined using a broth microdilution protocol. Briefly, twofold dilutions of peptide solutions ([…]) were made in Mueller Hinton Broth (MHB) (Oxoid, Basingstoke, UK) in 96-well polypropylene clear round bottom microplates (Corning Inc., Corning, NY, USA). Bacteria were cultured for 18 h and then diluted in MHB broth and inoculated in the microplates so that the final inoculum in the wells was 5 × 10^5 CFU/mL. The final volumes in the wells were 200 μL. Plates were then incubated for 16 h at 37 °C. […] Chloramphenicol (Sigma-Aldrich, St. Louis, MI, USA) was used as a positive control to ensure the validity of the tests. […] MBCs were defined as the lowest peptide concentrations that inhibited 99.9% or more of bacterial growth based on the initial 5 × 10^5 CFU/mL inocula in the wells [66]. Three independent repetitions were completed, and two technical replicates were done for each independent repetition.
The impact of different salts on the antimicrobial activity of SJGAP and analogs thereof was tested by determining the effect on their MIC and MBC values. The same procedure as described above was used, but different concentrations of salts were added to the MHB medium in the microplates. To test the impact of monovalent cations, NaCl (Fisher Scientific, Fair Lawn, NJ, USA) and KCl (EMD, Gibbstown, NJ, USA) were tested at final concentrations of 50, 150, and 300 mM in the wells.
The stability of the peptides at elevated temperatures was also tested. Mixtures of the peptides solubilized in MHB medium were heated to 100 °C for 15 min in a water bath. After cooling in an ice water bath, the solutions were loaded into the microplates and inoculated with the tested bacteria to conduct the MIC and MBC assays. For all tested conditions, three independent repetitions and two technical replicates for each of these repetitions were completed.

SMILES: O=C(N[C@H](CO)[C@H](O)c1ccc([N+](=O)[O-])cc1)C(Cl)Cl [Chloramphenicol]
- MIC (ATCC11229, 16 h, MHB + 1 mM CaCl2, 16 h, 37 °C, 5 × 10^5 CFU/mL, three independent repetitions, n.a. = no activity, read-out: MIC): 8 µg/mL
- MIC (ATCC11229, MHB + 1 mM MgCl2, n.a. = no activity, read-out: MIC): 8 µg/mL
- MIC (ATCC11229, MHB + 5 mM CaCl2, n.a. = no activity, read-out: MIC): 8 µg/mL
- MIC (ATCC11229, MHB + 5 mM MgCl2, n.a. = no activity, read-out: MIC): 8 µg/mL
- MIC (ATCC11229, MHB + 10 mM CaCl2, n.a. = no activity, read-out: MIC): 8 µg/mL
- MIC (ATCC11229, MHB + 10 mM MgCl2, n.a. = no activity, read-out: MIC): 8 µg/mL
- MIC (ATCC11229, MHB + 50 mM KCl, n.a. = no activity, * very weak bacterial growth detected, read-out: MIC): 8 µg/mL
- MIC (ATCC11229, MHB + 50 mM NaCl, n.a. = no activity, * very weak bacterial growth detected, read-out: MIC): 8 µg/mL
- MIC (ATCC11229, MHB + 150 mM KCl, n.a. = no activity, * very weak bacterial growth detected, read-out: MIC): 4 µg/mL
- MIC (ATCC11229, MHB + 150 mM NaCl, n.a. = no activity, * very weak bacterial growth detected, read-out: MIC): 4 µg/mL
- MIC (ATCC11229, MHB + 300 mM KCl, n.a. = no activity, read-out: MIC): 2 µg/mL
- MIC (ATCC11229, MHB + 300 mM NaCl, n.a. = no activity, read-out: MIC): 4 µg/mL
- MIC (ATCC11229, […], peptide in MHB heated 100 °C, 15 min in water bath, cooled, then assayed, n.a. = no activity, read-out: MIC after heating treatment): 8 µg/mL (≈ 24.8 µM)
- MIC (ATCC11229, pH 5, MHB adjusted to pH 5 with 50 mM citrate buffer, * very weak bacterial growth detected, read-out: MIC): 0.5 µg/mL (≈ 1.55 µM)
- MIC (ATCC11229, pH 6, MHB adjusted to pH 6 with 50 mM citrate buffer, * very weak bacterial growth detected, read-out: MIC): 2 µg/mL (≈ 6.19 µM)
- MIC (ATCC11229, pH 7, MHB adjusted to pH 7 with 50 mM phosphate buffer, n.a. = no activity, read-out: MIC): 4 µg/mL (≈ 12.4 µM)
- MIC (ATCC11229, pH 8, MHB adjusted to pH 8 with 50 mM phosphate buffer, n.a. = no activity, read-out: MIC): 4 µg/mL (≈ 12.4 µM)
- MIC (ATCC11229, unmodified MHB (Ctrl −), n.a. = no activity, read-out: MIC): 8 µg/mL (≈ 24.8 µM)
